The supplement of paper PMC10307832

Legend:
Test in all cases: relative viability (nuclei count vs DMSO), 5 days (fraction); higher = more cells survive
[1] = compound: Cn1c(=O)n(-c2ccc(C(C)(C)C#N)cc2)c2c3cc(-c4cnc5ccccc5c4)ccc3ncc21 [Dactolisib] + CC(=O)c1c(C)c2cnc(Nc3ccc(N4CCNCC4)cn3)nc2n(C2CCCC2)c1=O [Palbociclib] (partner 0.5 µM)
Summary of the method: (§1)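 For relative viability, nuclei counts in treated wells were divided by those in vehicle wells. Lung cancer cell lines had been pin-tool dosed in 1536-well plates the day after seeding and cultured for 5 days, then fixed and stained in one step (final 0.05% Triton X-100, 1% formaldehyde, 1 ug/ml Hoechst) and imaged at 4×. Doses were one drug alone or a fixed anchor-drug dose plus five library-drug doses (not always all listed) in √10 steps, and values are duplicate-plate medians.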

[2] = compound: Cn1c(=O)n(-c2ccc(C(C)(C)C#N)cc2)c2c3cc(-c4cnc5ccccc5c4)ccc3ncc21 [Dactolisib] + NC(=O)Nc1cc(-c2cccc(F)c2)sc1C(=O)N[C@H]1CCCNC1 [AZD7762] (partner 0.2 µM)
Summary of the method: as §1

[3] = compound: C1CCC(CC1)N(CCNCCC2=C3C(=C(C=C2)O)NC(=O)CO3)C(=O)CCNCCC4=CC(=C(C=C4)Cl)Cl [AZ505] + Cc1nc(NC(=O)N2CCC[C@H]2C(N)=O)sc1-c1ccnc(C(C)(C)C(F)(F)F)c1 [Alpelisib] (partner 2 µM)
Summary of the method: as §1

[4] = compound: Cn1c(=O)n(-c2ccc(C(C)(C)C#N)cc2)c2c3cc(-c4cnc5ccccc5c4)ccc3ncc21 [Dactolisib] + CC(C)C[C@H](NC(=O)[C@H](Cc1ccccc1)NC(=O)c1cnccn1)B(O)O [Bortezomib] (partner 0.002 µM)
Summary of the method: as §1

Cell Line	relative viability ([1]; first compound 0.002 µM)	relative viability ([1]; first compound 0.006325 µM)	relative viability ([1]; first compound 0.02 µM)	relative viability ([1]; first compound 0.06325 µM)	relative viability ([1]; first compound 0.2 µM)	relative viability ([2]; first compound 0.002 µM)	relative viability ([2]; first compound 0.006325 µM)	relative viability ([2]; first compound 0.02 µM)	relative viability ([2]; first compound 0.06325 µM)	relative viability ([2]; first compound 0.2 µM)	relative viability ([3]; first compound 0.08 µM)	relative viability ([3]; first compound 0.253 µM)	relative viability ([3]; first compound 0.8 µM)	relative viability ([3]; first compound 2.53 µM)	relative viability ([3]; first compound 8 µM)	relative viability ([4]; first compound 0.002 µM)	relative viability ([4]; first compound 0.006325 µM)	relative viability ([4]; first compound 0.02 µM)	relative viability ([4]; first compound 0.06325 µM)	relative viability ([4]; first compound 0.2 µM)
EMC-BAC-2	0.563	0.486	0.461	0.324	0.29	1.14	0.955	0.984	0.662	0.607	0.718	0.759	0.696	0.761	0.831	1.11	1.06	1.09	0.859	0.63
LU99A	0.419	0.37	0.297	0.216	0.181	0.305	0.247	0.263	0.166	0.127	0.55	0.519	0.618	0.478	0.493	1.12	0.903	0.543	0.366	0.249
ABC-1	0.651	0.48	0.514	0.514	0.481	0.925	0.805	0.738	0.761	0.557	0.881	1.01	1.1	1.26	1.02	0.345	0.296	0.303	0.312	0.247
NCI-H2347	0.505	0.448	0.401	0.402	0.358	0.75	0.78	0.715	0.532	0.458	0.558	0.591	0.643	0.522	0.714	0.809	0.916	0.894	0.691	0.402
NCI-H1993	0.605	0.524	0.439	0.424	0.354	0.735	0.507	0.53	0.335	0.387	0.544	0.729	0.753	0.741	0.608	0.94	0.689	0.754	0.522	0.455
NCI-H322M	0.487	0.476	0.415	0.387	0.415	0.524	0.547	0.424	0.425	0.408	0.757	0.774	0.688	0.844	0.79	1.21	1.24	1.13	1.07	0.838
NCI-H838	0.2	0.186	0.151	0.142	0.117	0.845	0.908	0.843	0.709	0.633	0.988	0.966	0.943	0.928	1.01	0.852	0.725	0.434	0.22	0.242
HARA	0.304	0.233	0.301	0.233	0.188	0.271	0.463	0.59	0.438	0.27	0.704	0.641	0.582	0.512	0.494	1.12	1.08	1.13	1.1	0.491
NCI-H2087	0.275	0.232	0.221	0.172	0.142	1.24	1.35	1.67	0.707	0.597	0.863	1.03	1.01	1.14	0.997	1.04	0.784	0.791	0.548	0.382
NCI-H1437	0.321	0.328	0.369	0.274	0.215	1.07	1.18	1.12	1.05	1.1	0.852	0.93	0.876	0.932	1	0.567	0.564	0.518	0.377	0.278
NCI-H1792	0.676	0.651	0.568	0.34	0.271	0.748	0.448	0.569	0.0821	0.0508	0.719	0.769	0.66	0.701	0.642	0.872	0.948	0.936	0.598	0.313
NCI-H650	0.387	0.33	0.334	0.279	0.204	1.04	1.07	0.9	0.79	0.469	1.03	1.31	1.03	1.14	1.21	0.884	0.774	0.834	0.653	0.3
201T	0.363	0.356	0.334	0.279	0.267	0.578	0.64	0.613	0.464	0.402	0.942	1.01	0.973	1.04	1.05	1.05	1.08	1.08	1.07	0.856
HCC-44	1.04	1.02	1.01	0.99	0.919	1.03	1.03	0.951	1.07	1.14	0.734	0.751	0.75	0.901	0.869	0.932	0.84	0.968	0.535	0.516
H3255	0.332	0.305	0.321	0.313	0.314	0.921	0.963	0.803	0.828	0.551	0.62	0.8	0.715	0.705	0.813	0.798	0.693	0.766	0.664	0.39
NCI-H647	0.398	0.294	0.196	0.0842	0.0654	0.36	0.337	0.276	0.159	0.111	1.04	1.46	1.05	1.07	1.08	0.868	0.798	0.42	0.193	0.143

Cell Line	relative viability ([1]; first compound 0.002 µM)	relative viability ([1]; first compound 0.006325 µM)	relative viability ([1]; first compound 0.02 µM)	relative viability ([1]; first compound 0.06325 µM)	relative viability ([1]; first compound 0.2 µM)	relative viability ([2]; first compound 0.002 µM)	relative viability ([2]; first compound 0.006325 µM)	relative viability ([2]; first compound 0.02 µM)	relative viability ([2]; first compound 0.06325 µM)	relative viability ([2]; first compound 0.2 µM)	relative viability ([3]; first compound 0.08 µM)	relative viability ([3]; first compound 0.253 µM)	relative viability ([3]; first compound 0.8 µM)	relative viability ([3]; first compound 2.53 µM)	relative viability ([3]; first compound 8 µM)	relative viability ([4]; first compound 0.002 µM)	relative viability ([4]; first compound 0.006325 µM)	relative viability ([4]; first compound 0.02 µM)	relative viability ([4]; first compound 0.06325 µM)	relative viability ([4]; first compound 0.2 µM)
NCI-H23	0.464	0.383	0.37	0.189	0.191	0.241	0.232	0.309	0.19	0.101	0.617	–	0.653	0.644	0.845	1.04	0.924	0.798	0.247	0.294
NCI-H460	0.0965	0.111	0.13	0.0706	0.0375	0.588	0.662	0.614	0.379	0.115	0.458	0.559	0.485	0.507	0.469	1.28	1.11	0.984	0.106	0.0739
EKVX	0.431	0.386	0.324	0.241	0.197	0.693	0.73	0.659	0.589	0.303	0.896	1.04	0.896	0.899	1.01	1.09	0.997	1.02	0.941	0.396
EPLC-272H	0.331	0.299	0.341	0.317	0.287	0.218	0.273	0.249	0.165	0.148	0.76	0.719	0.679	0.789	0.958	0.899	0.903	0.721	0.693	0.496
NCI-H2126	0.369	0.359	0.33	0.352	0.316	0.946	0.925	0.949	0.803	0.623	0.729	0.781	0.771	0.746	0.822	1.19	1.16	1.12	0.921	0.551
LXF-289	0.622	0.591	0.585	0.522	0.381	1.14	1.13	1.19	1.14	0.862	0.983	–	1.02	1.06	1.01	1.07	1.03	1.07	0.971	0.648
NCI-H2405	0.471	0.542	0.449	0.314	0.291	0.773	0.768	0.674	0.48	0.253	0.4	0.426	0.503	0.384	0.508	1	0.97	0.96	0.892	0.628
NCI-H1755	0.482	0.423	0.42	0.388	0.38	0.355	0.453	0.422	0.411	0.325	0.893	0.915	0.911	0.883	0.923	1.01	0.848	0.933	0.711	0.58
HCC-78	0.46	0.453	0.479	0.475	0.441	0.627	0.712	0.553	0.484	0.242	–	0.515	0.306	0.411	0.462	0.483	0.43	0.404	0.269	0.203
LOU-NH91	0.532	0.548	0.549	0.524	0.52	0.753	0.734	0.69	0.575	0.533	0.622	0.636	0.611	0.631	0.742	0.526	0.502	0.49	0.458	0.43
NCI-H3122	0.18	0.198	0.173	0.16	0.137	0.971	0.892	1	0.953	0.488	0.79	0.677	0.772	0.721	0.836	1	0.987	1.11	1.09	0.927
HCC-827	0.473	0.518	0.47	0.36	0.171	0.226	0.279	0.176	0.184	0.231	0.921	0.997	0.87	0.947	1.06	1.12	1.01	1.11	1.14	1.05
NCI-H1975	0.551	0.561	0.536	0.182	0.129	0.659	0.695	0.63	0.488	0.388	0.578	0.689	0.651	0.651	0.654	0.362	0.338	0.323	0.209	0.183
NCI-H1651	0.532	0.487	0.463	0.348	0.231	0.443	0.483	0.318	0.28	0.179	0.94	1.03	0.977	0.89	0.939	1.05	0.952	0.884	0.886	0.67
NCI-H441	0.27	0.206	0.194	0.176	0.133	1.04	1.28	1.18	0.764	0.449	0.721	0.698	0.599	0.671	0.761	0.523	0.457	0.305	0.157	0.196
LCLC-103H	0.483	0.494	0.45	0.414	0.373	0.797	0.781	0.703	0.582	0.467	0.853	0.818	0.977	0.848	0.957	1.03	1.14	0.964	0.743	0.71
